Source: US9061029B2, “Method of treating proliferative disorders and other pathological conditions mediated by Bcr-Abl, c-Kit, DDR1, DDR2 or PDGF-R kinase activity” (Novartis AG, priority 2009, dated 2015)
Where two headings read alike, the source gives them in different places.

How the values were obtained:
[1] = administration of nilotinib in a fruit preparation, human subjects
Description: All treatments were administered with 240 mL of water, in the morning, after an overnight fast of at least 10 hours. Subjects continued to fast until 4 hours after administration. […] Consumption of grapefruit, grapefruit juice, or any caffeinated beverages within 48 hours of study initiation was prohibited.
At each time point, 2.5 mL of whole blood was drawn using a Serum Separator Vacutainer® (Becton, Dickinson and Company, Franklin Lakes, N.J., USA) tube. The tube was allowed to stand vertically at room temperature for 30 minutes prior to centrifugation at 5° C. for 10 minutes at 1100 g. Immediately after centrifugation, the upper serum sample was transferred and stored frozen at ≦−15° C. until shipped to the analytical site for sample analyses.
The MTBE layer was transferred, evaporated to dryness, and reconstituted with 400 μl of an acetonitrile and 0.2% formic acid mixture (40:60, v/v). Chromatography was carried out using a Phenomenex Synergi™ Polar-RP column (particle size 4 μm, 50 mm×2 mm i.d.) (Phenomenex, Inc, Torrance, Calif.) held at room temperature. Elution of the analytes was performed using a isocratic elution at a flow rate of 0.5 mL/min with mobile phases of 0.2% formic acid in 10 mM aqueous ammonium formate: 0.2% formic acid in acetonitrile (60:40, v/v).

[2] = 400 mg oral capsule, cited from earlier work
[3] = concurrent intake of grapefruit juice; cited from earlier work
[4] = light breakfast given 30 minutes prior to dosing

Cc1cn(-c2cc(NC(=O)c3ccc(C)c(Nc4nccc(-c5cccnc5)n4)c3)cc(C(F)(F)F)c2)cn1 [nilotinib, 4-methyl-3-[[4-(3-pyridinyl)-2-pyrimidinyl]amino]-N-[5-(4-methyl-1H-imidazol-1-yl)-3-(trifluoromethyl)-phenyl]benzamide]
safety and tolerability [1]: safe and well tolerated
increase in Cmax ([2]; after a high fat breakfast): 112%
increase in total exposure (AUC0-t) ([2]; after a high fat breakfast): 82%
increase in Cmax [2, 4]: 55%
increase in total exposure (AUC0-t) [2, 4]: 29%
AUC increase [3]: 29%
Cmax increase [3]: 60%
